Experimental data: patent US11000033B2, “Ketone or oxime compound, and herbicide” (NISSAN CHEMICAL CORPORATION, priority 2014, dated 2021)

Columns and labels:
Assay type in all cases: in vivo
[1] = tested on: Echinochloa oryzacola Vasing.; test: Test Example 1: herbicidal activity, application before weed generation in submerged conditions (symbol A); conditions: application herbicide amount 320 g/ha
How it was run: (§1)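 0–5 visual score, 3 wk post-application. Submerged pots, alluvial soil, water 4 cm; seeds sown mixed, rice at 2.5 leaves transplanted. Emulsion diluted to predetermined dose, applied to water surface at sowing. 25–30 °C greenhouse.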

[2] = tested on: Scirpus juncoides; test: Test Example 1: herbicidal activity, application before weed generation in submerged conditions (symbol B); conditions: application herbicide amount 320 g/ha
How it was run: as §1

[3] = tested on: transplanted rice plant; test: Test Example 1: effect on crop, application before weed generation in submerged conditions (symbol a); conditions: application herbicide amount 320 g/ha
How it was run: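 Alluvial soil pots flooded to 4 cm water, sown with Echinochloa oryzacola, Scirpus juncoides and Monochoria vaginalis, then transplanted with 2.5 leaf stage rice seedlings; pre-emergence application. Greenhouse 25° C. to 30° C.; scored 0–5 by herbicidal ratio 3 weeks after application.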

[4] = tested on: Monochoria vaginalis; test: Test Example 2: herbicidal activity, application during weed generation in submerged conditions (symbol C); conditions: Table 23; application herbicide amount 320 g/ha; grade 0-5 by criteria of Test Example 1
How it was run: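 Treatment timing was the one- to two-leaf stage, with diluted emulsifiable compound dropped onto the paddy water (depth 4 cm) over alluvial soil. All three species grew from a mixed sowing in a 25° C. to 30° C. greenhouse. Injury was judged by eye 3 weeks on.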

[5] = tested on: directly sowed rice plant; test: Test Example 3: effect on crop by foliage application, Wagner pot (symbol b); conditions: application herbicide amount 320 g/ha
How it was run: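 Steps: fill a 1/10000-are Wagner pot with alluvial soil; add water and mix to submerge at 0.1–0.5 cm depth; sow rice plus Echinochloa crus-galli var. crus-galli, Leptochloa chinensis and Cyperus difformis; grow in a 25–30 °C greenhouse.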

[6] = tested on: Avena fatua; test: Test Example 4: herbicidal effect by soil treatment (symbol I)
How it was run: (§2)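 Seeds were sown in sterilized diluvial soil, covered with about 1.5 cm of soil, and the soil surface was sprayed with a water-diluted emulsion of the compound at a predetermined rate. Plants grew in a greenhouse at 25° C. to 30° C.; effects were scored visually 3 weeks after application.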

[7] = tested on: Alopecurus myosuroides; test: Test Example 4: herbicidal effect by soil treatment (symbol J)
How it was run: as §2

[8] = tested on: Abutilon theophrasti; test: Test Example 4: herbicidal effect by soil treatment (symbol M)
How it was run: as §2

[9] = tested on: Amaranthus retroflexus; test: Test Example 4: herbicidal effect by soil treatment (symbol N)
How it was run: as §2

[10] = tested on: Veronica persica; test: Test Example 4: herbicidal effect by soil treatment (symbol R)
How it was run: as §2

[11] = tested on: soybean; test: Test Example 4: effect on crop by soil treatment (symbol d); conditions: for d: soybean, effect on crop grade: application herbicide amount 320 g/ha
How it was run: (§3)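 Grown at 25° C. to 30° C. in a greenhouse, the crops came from seed sown spot-wise in sterilized diluvial soil under roughly 1.5 cm of covering soil.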

[12] = tested on: beet; test: Test Example 4: effect on crop by soil treatment (symbol f); conditions: for f: beet, effect on crop grade: application herbicide amount 320 g/ha
How it was run: as §3

[13] = tested on: rapeseed; test: Test Example 4: effect on crop by soil treatment (symbol g); conditions: for g: rapeseed, effect on crop grade: application herbicide amount 320 g/ha
How it was run: as §3

[14] = tested on: Digitaria ciliaris; test: Test Example 5: herbicidal effect by foliage application, plastic box (symbol F); conditions: 320 g/ha, 3 weeks after application
How it was run: (§4)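 Sowing in sterilized diluvial soil, 14 days' greenhouse growth at 25° C. to 30° C., then uniform small-sprayer foliar application of aqueous emulsion dilution; plants scored three weeks afterwards.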

[15] = tested on: Echinochloa crus-galli var. crus-galli; test: Test Example 5: herbicidal effect by foliage application, plastic box (symbol H); conditions: 320 g/ha, 3 weeks after application
How it was run: as §4

[16] = application herbicide amount 320 g/ha

Compound	Herbicidal effect grade, A: Echinochloa oryzacola Vasing. [1]	Herbicidal effect grade, B: Scirpus juncoides [2]	Effect grade on crop, a: transplanted rice plant [3]	Herbicidal effect grade, C: Monochoria vaginalis [4]	effect on crop b (directly sowed rice plant), grade 0-5 [5]	I: Avena fatua, herbicidal effect grade [6, 16]	J: Alopecurus myosuroides, herbicidal effect grade [7, 16]	M: Abutilon theophrasti, herbicidal effect grade [8, 16]	N: Amaranthus retroflexus, herbicidal effect grade [9, 16]	R: Veronica persica, herbicidal effect grade [10, 16]	d: soybean, effect on crop grade [11]	f: beet, effect on crop grade [12]	g: rapeseed, effect on crop grade [13]	F: Digitaria ciliaris, herbicidal effect grade [14]	H: Echinochloa crus-galli var. crus-galli, herbicidal effect grade [15]	further results
CCOC(=O)C(C(=O)C(F)(F)F)C1CC(O)=C(c2c(C)cc(C)cc2C)C1=O (stereo not drawn) [2-010]	0 (Herbicidal ratio of 5% or lower (almost no effect))	0 (Herbicidal ratio of 5% or lower (almost no effect))	0 (Herbicidal ratio of 5% or lower (almost no effect))	0 (Herbicidal ratio of 5% or lower (almost no effect))	1 (Herbicidal ratio of 5% or higher and lower than 20%)	0 (Herbicidal ratio of 5% or lower (almost no effect))	0 (Herbicidal ratio of 5% or lower (almost no effect))	0 (Herbicidal ratio of 5% or lower (almost no effect))	0 (Herbicidal ratio of 5% or lower (almost no effect))	0 (Herbicidal ratio of 5% or lower (almost no effect))	0 (Herbicidal ratio of 5% or lower (almost no effect))	0 (Herbicidal ratio of 5% or lower (almost no effect))	0 (Herbicidal ratio of 5% or lower (almost no effect))	0 (Herbicidal ratio of 5% or lower (almost no effect))	0 (Herbicidal ratio of 5% or lower (almost no effect))	–
CCCC(=O)C(C(=O)OC)C1CC(O)=C(c2c(C)cc(C)cc2C)C1=O (stereo not drawn) [2-020]	2 (Herbicidal ratio of 20% or higher and lower than 40%)	0 (Herbicidal ratio of 5% or lower (almost no effect))	3 (Herbicidal ratio of 40% or higher and lower than 70%)	0 (Herbicidal ratio of 5% or lower (almost no effect))	2 (Herbicidal ratio of 20% or higher and lower than 40%)	0 (Herbicidal ratio of 5% or lower (almost no effect))	0 (Herbicidal ratio of 5% or lower (almost no effect))	0 (Herbicidal ratio of 5% or lower (almost no effect))	1 (Herbicidal ratio of 5% or higher and lower than 20%)	0 (Herbicidal ratio of 5% or lower (almost no effect))	0 (Herbicidal ratio of 5% or lower (almost no effect))	0 (Herbicidal ratio of 5% or lower (almost no effect))	0 (Herbicidal ratio of 5% or lower (almost no effect))	3 (Herbicidal ratio of 40% or higher and lower than 70%)	4 (Herbicidal ratio of 70% or higher and lower than 90%)	–
CON=C(C)C1CC(O)=C(c2c(C)cc(C)cc2C)C1=O (mixture of isomers) [3-002]	0 (Herbicidal ratio of 5% or lower (almost no effect))	0 (Herbicidal ratio of 5% or lower (almost no effect))	0 (Herbicidal ratio of 5% or lower (almost no effect))	0 (Herbicidal ratio of 5% or lower (almost no effect))	0 (Herbicidal ratio of 5% or lower (almost no effect))	0 (Herbicidal ratio of 5% or lower (almost no effect))	0 (Herbicidal ratio of 5% or lower (almost no effect))	0 (Herbicidal ratio of 5% or lower (almost no effect))	0 (Herbicidal ratio of 5% or lower (almost no effect))	0 (Herbicidal ratio of 5% or lower (almost no effect))	0 (Herbicidal ratio of 5% or lower (almost no effect))	0 (Herbicidal ratio of 5% or lower (almost no effect))	0 (Herbicidal ratio of 5% or lower (almost no effect))	0 (Herbicidal ratio of 5% or lower (almost no effect))	1 (Herbicidal ratio of 5% or higher and lower than 20%)	–
CON=C(C)CC1CC(OC(=O)c2ccccc2C(F)(F)F)=C(c2c(C)cc(C)cc2C)C1=O (stereo not drawn) [1-154]	5 (Herbicidal ratio of 90% or more (almost completely withered))	4 (Herbicidal ratio of 70% or higher and lower than 90%)	5 (Herbicidal ratio of 90% or more (almost completely withered))	4 (Herbicidal ratio of 70% or higher and lower than 90%)	5 (Herbicidal ratio of 90% or more (almost completely withered))	–	–	–	–	–	–	–	–	–	–	I: Avena fatua, herbicidal effect grade ([6]; 320 g/ha): 0 (Herbicidal ratio of 5% or lower (almost no effect)); J: Alopecurus myosuroides, herbicidal effect grade ([7]; 320 g/ha): 5 (Herbicidal ratio of 90% or more (almost completely withered)); M: Abutilon theophrasti, herbicidal effect grade ([8]; 320 g/ha): 4 (Herbicidal ratio of 70% or higher and lower than 90%); N: Amaranthus retroflexus, herbicidal effect grade ([9]; 320 g/ha): 4 (Herbicidal ratio of 70% or higher and lower than 90%); R: Veronica persica, herbicidal effect grade ([10]; 320 g/ha): 0 (Herbicidal ratio of 5% or lower (almost no effect)); d: soybean, effect grade on crop ([11]; 320 g/ha): 0 (Herbicidal ratio of 5% or lower (almost no effect)); f: beet, effect grade on crop ([12]; 320 g/ha): 0 (Herbicidal ratio of 5% or lower (almost no effect)); g: rapeseed, effect grade on crop ([13]; 320 g/ha): 4 (Herbicidal ratio of 70% or higher and lower than 90%); F: Digitaria ciliaris, herbicidal effect (criteria 0-5) [14]: 5 (Herbicidal ratio of 90% or more (almost completely withered)); H: Echinochloa crus-galli var. crus-galli, herbicidal effect (criteria 0-5) [15]: 5 (Herbicidal ratio of 90% or more (almost completely withered))
Cc1cc(C)c(C2=C(O)CC(CC(=O)CC3CC3)C2=O)c(C)c1 (stereo not drawn) [2-026]	3 (Herbicidal ratio of 40% or higher and lower than 70%)	3 (Herbicidal ratio of 40% or higher and lower than 70%)	4 (Herbicidal ratio of 70% or higher and lower than 90%)	0 (Herbicidal ratio of 5% or lower (almost no effect))	5 (Herbicidal ratio of 90% or more (almost completely withered))	0 (Herbicidal ratio of 5% or lower (almost no effect))	3 (Herbicidal ratio of 40% or higher and lower than 70%)	0 (Herbicidal ratio of 5% or lower (almost no effect))	0 (Herbicidal ratio of 5% or lower (almost no effect))	0 (Herbicidal ratio of 5% or lower (almost no effect))	0 (Herbicidal ratio of 5% or lower (almost no effect))	0 (Herbicidal ratio of 5% or lower (almost no effect))	4 (Herbicidal ratio of 70% or higher and lower than 90%)	4 (Herbicidal ratio of 70% or higher and lower than 90%)	4 (Herbicidal ratio of 70% or higher and lower than 90%)	–
